Assay results published in patent US12516022B2, “Derivatives of aryl hydrocarbon receptor agonists” (AZORA THERAPEUTICS, INC., priority 2021, dated 2026).

Experiment: Time course of conversion to indirubin in FaSSGF at 37° C.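 Further: compound incubated in fasted state simulated gastric fluid, species in samples quantified by UPLC-MS with UV (210–400 nm) and ELS detection.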
Type: physicochemical
Conditions: FaSSGF (Example 4; table title prints FaSSIF) 37° C.; for Conversion to indirubin: over a 24 hour period

indirubin (15 min) [%]	indirubin methylene alcohol (15 min) [%]	starting material (prodrug compound) (15 min) [%]	indirubin (30 min) [%]	indirubin methylene alcohol (30 min) [%]	starting material (prodrug compound) (30 min) [%]	indirubin (1 h) [%]	indirubin methylene alcohol (1 h) [%]	starting material (prodrug compound) (1 h) [%]	indirubin (2 h) [%]	indirubin methylene alcohol (2 h) [%]	starting material (prodrug compound) (2 h) [%]	indirubin (24 h) [%]	indirubin methylene alcohol (24 h) [%]	starting material (prodrug compound) (24 h) [%]	Conversion to indirubin	Compound
23	0	75	18	0	76	24	0	74	24	0	76	41	0	58	40-60%	CN1CCN(CN2C(=O)/C(=C3\Nc4ccccc4C3=O)c3ccccc32)CC1 [drawing 273]
25	2	71	26	4	70	25	2	71	24	2	71	23	3	74	20-40%	O=C1/C(=C2/C(=O)N(CN3CCC3)c3ccccc32)Nc2ccccc21 [drawing 275]
7	0	89	8	0	85	10	5	85	11	3	80	29	3	68	20-40%	O=C1/C(=C2/C(=O)N(CN3CCOCC3)c3ccccc32)Nc2ccccc21 [drawing 276]
0	15	83	0	23	67				0	22	72	0	8	26	0-20%	O=C1/C(=C2/C(=O)N(COS(=O)(=O)O)c3ccccc32)Nc2ccccc21 [drawing 277]
7	0	69	12	0	61	11	0	82	9	0	58	10	0	86	0-20%	O=C1/C(=C2/C(=O)N(C(=O)NC3CCOCC3)c3ccccc32)Nc2ccccc21 [drawing 278]
0	0	100	0	0	100	0	0	100	0	0	100	0	0	100	0-20%	CNCCNC(=O)N1C(=O)/C(=C2\Nc3ccccc3C2=O)c2ccccc21.Cl [drawing 279]
															0-20%	O=C1/C(=C2/C(=O)N(CN3CCC(F)(F)CC3)c3ccccc32)Nc2ccccc21 [drawing 280]
4	4	92	3	0	97	4	4	87	3	0	97	0	0	100	0-20%	CC(=O)N1CCN(CN2C(=O)/C(=C3\Nc4ccccc4C3=O)c3ccccc32)CC1 [drawing 281]

More lines, now with the values behind:

Compound	indirubin (15 min) [%]	indirubin methylene alcohol (15 min) [%]	starting material (prodrug compound) (15 min) [%]	indirubin (30 min) [%]	indirubin methylene alcohol (30 min) [%]	starting material (prodrug compound) (30 min) [%]	indirubin (1 h) [%]	indirubin methylene alcohol (1 h) [%]	starting material (prodrug compound) (1 h) [%]	indirubin (2 h) [%]	indirubin methylene alcohol (2 h) [%]	starting material (prodrug compound) (2 h) [%]	indirubin (24 h) [%]	indirubin methylene alcohol (24 h) [%]	starting material (prodrug compound) (24 h) [%]	Conversion to indirubin
CCN(CC)CN1C(=O)/C(=C2\Nc3ccccc3C2=O)c2ccccc21 [drawing 267]	100	0	0	100	0	0	100	0	0	100	0	0	100	0	0	80-100%
CN(C)CCN(C)CN1C(=O)/C(=C2\Nc3ccccc3C2=O)c2ccccc21 [drawing 268]	93	6	0	93	6	0	92	7	0	95	1	0	95	5	0	80-100%
O=C1/C(=C2/C(=O)N(CN3CCCCC3)c3ccccc32)Nc2ccccc21 [drawing 269]	99	0	1	99	0	1	99	0	1	99	0	1	99	0	1	80-100%
O=C1/C(=C2/C(=O)N(CN3CCCC3)c3ccccc32)Nc2ccccc21 [drawing 270]	100	0	0	100	0	0	100	0	0	100	0	0	99	1	0	80-100%
CN(C)CCN(CCN(C)C)CN1C(=O)/C(=C2\Nc3ccccc3C2=O)c2ccccc21 [drawing 271]	90	5	4	94	4	2	87	9	3	91	8	2	90	9	1	80-100%
CN(C)C1CCN(CN2C(=O)/C(=C3\Nc4ccccc4C3=O)c3ccccc32)CC1 [drawing 272]	51	5	41	55	5	36	44	10	46	44	10	46	61	1	31	60-80%
O=C1/C(=C2/C(=O)N(CO)c3ccccc32)Nc2ccccc21 [drawing 274]	8	92	0	18	82	0	12	88	0	18	82	0	22	78	0	20-40%
